One experiment deals with HCC38 cells. Description: 6-day cell proliferation assay, HCC38. The conditions noted are these: HCC38, proliferation over 6 days. In kind it is cell-based, human. How it is done: Human breast cancer cell lines MCF7, BT-474, T-47D, MDA-MB-453, MDA-MB-231, Hs 578T, HCC38, SK-BR-3, and DU4475 were purchased from the American Type Culture Collection (ATCC) and no additional cell authentication was performed. The TSE human breast cancer cell line was supplied by Dr. Steven Abcouwer (University of Michigan). All breast cancer cells were cultured at 37° C. under a 5% CO2 atmosphere in RPMI 1640 medium containing 2 mM glutamine (Gibco) and supplemented with 10% fetal bovine serum (FBS) (Gibco). The 293T cell line (ATCC) used for generating lentivirus particles was cultured as above but using DMEM, high glucose (Gibco).
Culture medium was added to 12-well plates (1 ml/well) and wells were seeded with cells at Day 0 as follows. MCF7, T-47D, BT-474, HCC38 cells: […] cells/well. MDA-MB-453 and MDA-MB-231 cells: 1×10^4 cells/well. TSE and Hs 578T cells: 0.3×10^4 cells/well. After 16 hours, culture medium was replaced with fresh medium supplemented with appropriate concentrations of inhibitors and was subsequently replaced every 48 hours. On Day 6 cells were trypsinized and suspended in an appropriate volume of culture medium, and the total number of cells per well was determined using a hemocytometer or a TC20 Automated Cell Counter (Bio-Rad).

Experiment [1] deals with T1, recombinant full-length human GLS2 (Homo sapiens, UniProt Q9UI32).
T1 construct: GLS2 (residues 38 to 602) in E. coli; inferred from pQE80 vector and Ni-NTA/imidazole purification; made in house; host or cells: E. coli BL21(DE3)
T1 sequence (Q9UI32 38-602): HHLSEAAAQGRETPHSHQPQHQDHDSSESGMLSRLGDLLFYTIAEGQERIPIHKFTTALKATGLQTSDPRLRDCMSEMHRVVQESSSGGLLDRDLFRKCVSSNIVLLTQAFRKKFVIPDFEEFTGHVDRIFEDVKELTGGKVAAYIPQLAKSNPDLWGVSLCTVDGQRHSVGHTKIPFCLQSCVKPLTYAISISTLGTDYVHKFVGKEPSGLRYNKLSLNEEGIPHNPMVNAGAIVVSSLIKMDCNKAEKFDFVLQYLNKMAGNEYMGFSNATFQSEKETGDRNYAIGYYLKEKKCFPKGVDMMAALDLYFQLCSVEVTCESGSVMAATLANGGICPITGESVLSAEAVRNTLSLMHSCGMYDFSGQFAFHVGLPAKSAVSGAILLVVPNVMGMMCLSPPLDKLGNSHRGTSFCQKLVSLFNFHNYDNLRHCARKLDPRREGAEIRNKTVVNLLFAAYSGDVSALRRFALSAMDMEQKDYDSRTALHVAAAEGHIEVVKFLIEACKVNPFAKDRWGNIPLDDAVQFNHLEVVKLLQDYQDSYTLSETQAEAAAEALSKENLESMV
Description: Real-time recombinant glutaminase activity assay, GLS2. In kind it is biochemical. The protocol: Real-time monitoring of glutaminase activity through NADH production was performed on a Cary Eclipse fluorescence spectrometer. The excitation and emission wavelengths were set at 340 nm and 460 nm, respectively. To a 1 ml cuvette, 900 μl of assay buffer was added, followed by 10 μl of GDH, 40 μl of 50 mM NAD and 20 μl of either DMSO or various dilutions of 968. Then, 100 μl of either 100 nM GAC or 500 nM GLS2 was added to this mixture and the fluorescence emission was monitored in real time. After 30 s, 200 μl of a mixture of glutamine and K2HPO4 was added such that the final concentrations of K2HPO4 and glutamine were 100 mM and 20 mM, respectively. The initial velocity of glutamine hydrolysis was obtained from the slopes of the linear portion of the kinetic curve.
Recombinant GAC and GLS2 were expressed in E. coli as described in Huang et al., “Characterization of the Interactions of Potent Allosteric Inhibitors with Glutaminase C, a Key Enzyme in Cancer Cell Glutamine Metabolism,” J. Biol. Chem. 293:3535-3545 (2018), which is hereby incorporated by reference in its entirety. Briefly, E. coli strain BL21(DE3) (Thermo Fisher Scientific) were transformed with vector pQE80-GAC-72-598 or with pQE80-GLS2-38-602 to express the processed forms of GAC and GLS2, respectively. For both constructs, expression was induced with 0.3 mM IPTG for 20 hours at 18° C., and cells were then harvested by centrifugation and lysed by sonication in binding buffer (500 mM NaCl, 50 mM Tris-HCl pH 8.5, 10 mM imidazole, 5 mM β-mercaptoethanol, 1 mM benzamidine chloride). The lysate was centrifuged, and the supernatant applied to a Ni-NTA column which was then washed with 100 column volumes of binding buffer followed by 10 volumes of wash buffer (500 mM NaCl, 50 mM Tris-HCl pH 8.5, 40 mM imidazole, 5 mM β-mercaptoethanol, 1 mM benzamidine chloride). Protein was eluted with 5 column volumes of elution buffer (500 mM NaCl, 300 mM imidazole-HCl pH 7.5, 5 mM β-mercaptoethanol, 1 mM benzamidine chloride). The eluate was centrifugally concentrated and then further purified by FPLC using a HiLoad 16/600 Superdex 200 column (GE Healthcare) with 150 mM NaCl, 5 mM Tris-HCl pH 7.5.

Where “and” joins values, the source holds several entries; their conditions need not be identical. Equal values may be shown once. Bounds are passed on as bounds.

The term EC50 denotes the concentration needed to bring the measured effect to its halfway point. Low values mean higher potency in that assay, high ones lower potency in that assay. With `O=C(Cc1ccccc1)Nc1nnc(CCSCCc2nnc(NC(=O)Cc3ccccc3)s2)s1` [BPTES], a half-maximal response with HCC38 cells (EC50) required 4.7 µM. Further, the “inhibition of recombinant GLS2 activity” value in experiment [1] (different concentrations) is “resistance”.

`CN(C)c1ccc(C2Nc3ccc4ccccc4c3C3=C2C(=O)CC(C)(C)C3)cc1Br` (stereo not drawn) [Compound 968] showed an EC50 in the experiment with HCC38 cells of 4 µM. For the same molecule, the “inhibition of recombinant GLS2 activity” value in experiment [1] (at 50 μM, NADH fluorescence in real time) is “completely blocks activity”; in experiment [1] (different concentrations) it was “inhibited”. In experiment [1] (purified recombinant glutaminases), the “selectivity for GLS2 over GLS” value is > 3 fold and ~3 fold.

These data come from patent US20250275964A1, “METHODS OF INHIBITING LIVER-TYPE GLUTAMINASE, GLS2” (CORNELL UNIVERSITY, priority 2019, published 2025).
